Source: US20070111328A1, “Scintillation proximity assay for the identification of P-glycoprotein modulators” (priority 2005, published 2007)

Assays:
P-glycoprotein (P-gp) [1] = molecular target: T1, P-glycoprotein (P-gp) (Homo sapiens, UniProt P08183); experiment: SPA saturation binding of [3H]-vinblastine to P-gp (KB-V1 cell membranes); set-up: endogenous in cells; host or cells: KB-V1 cells (multidrug-resistant subclone of KB-3-1, HeLa-derived); sucrose-gradient purified plasma membranes; conditions: [3H]-vinblastine 5 to 55 nM, specific binding fitted with Prism; read-out: KD (binding dissociation constant)
Method: The specific signal values versus the amount of radioligand was fitted to the equation using the Prism software (GraphPad Software Inc, San Diego, Calif.) as the following: [formula] where Bmax is the maximal binding, [L] is a ligand concentration, and KD is the binding dissociation constant. The fitting gave the KD value of 4 nM, which is in agreement with literature data.

P-glycoprotein (P-gp) [2] = molecular target: T1, P-glycoprotein (P-gp); experiment: Scintillation proximity assay (SPA): competition with [3H]vinblastine binding to P-gp in KB-V1 cell membranes; conditions: mean of triplicates; for effect of test compound on P-gp specific binding signal: test compound 10 μM final concentration, FIG. 8
Method: The samples were incubated for an additional 3 to 24-hours.
The methods described herein are based on the scintillation proximity assay (SPA) technique and its use to detect signal changes in the presence of a test compound. […] The signal should be reduced when the test compound is a P-gp substrate and/or inhibitor because of competition on the binding site or inhibition of the binding.

T1 sequence (P08183 whole entry): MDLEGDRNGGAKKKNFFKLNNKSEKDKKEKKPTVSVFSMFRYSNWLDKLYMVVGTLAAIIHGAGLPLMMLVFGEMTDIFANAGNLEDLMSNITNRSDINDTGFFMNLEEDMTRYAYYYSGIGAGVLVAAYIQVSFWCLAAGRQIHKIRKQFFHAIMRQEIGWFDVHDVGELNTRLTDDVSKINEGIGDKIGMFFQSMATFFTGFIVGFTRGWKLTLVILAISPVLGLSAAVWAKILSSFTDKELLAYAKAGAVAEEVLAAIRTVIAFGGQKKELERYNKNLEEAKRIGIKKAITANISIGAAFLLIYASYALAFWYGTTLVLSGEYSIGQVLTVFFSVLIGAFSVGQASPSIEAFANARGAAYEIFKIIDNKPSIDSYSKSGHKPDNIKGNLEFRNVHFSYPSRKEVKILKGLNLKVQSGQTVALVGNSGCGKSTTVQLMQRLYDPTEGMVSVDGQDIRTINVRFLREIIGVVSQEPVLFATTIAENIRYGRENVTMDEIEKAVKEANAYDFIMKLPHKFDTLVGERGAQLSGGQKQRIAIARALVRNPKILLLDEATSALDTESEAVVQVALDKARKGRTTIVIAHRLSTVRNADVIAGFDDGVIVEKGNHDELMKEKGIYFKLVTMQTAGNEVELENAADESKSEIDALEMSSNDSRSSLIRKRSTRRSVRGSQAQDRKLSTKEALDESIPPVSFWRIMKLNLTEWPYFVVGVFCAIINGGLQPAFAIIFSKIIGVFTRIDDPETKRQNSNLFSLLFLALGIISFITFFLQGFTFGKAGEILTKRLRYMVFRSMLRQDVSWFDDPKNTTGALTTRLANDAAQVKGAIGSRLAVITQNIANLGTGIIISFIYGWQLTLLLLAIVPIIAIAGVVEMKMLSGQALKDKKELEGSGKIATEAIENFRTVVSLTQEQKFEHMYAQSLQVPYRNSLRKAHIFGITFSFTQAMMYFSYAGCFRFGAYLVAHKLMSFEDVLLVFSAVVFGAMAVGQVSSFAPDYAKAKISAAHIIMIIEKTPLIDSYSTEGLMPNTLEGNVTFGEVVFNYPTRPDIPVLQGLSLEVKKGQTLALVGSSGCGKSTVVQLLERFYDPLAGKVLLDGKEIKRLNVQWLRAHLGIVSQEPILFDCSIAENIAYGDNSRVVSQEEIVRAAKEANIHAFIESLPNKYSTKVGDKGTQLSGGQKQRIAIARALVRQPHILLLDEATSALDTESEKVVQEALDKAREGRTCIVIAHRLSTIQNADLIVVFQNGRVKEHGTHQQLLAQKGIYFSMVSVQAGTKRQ

Compound	effect of test compound on P-gp specific binding signal (P-glycoprotein (P-gp) [2])	other results
CC[C@]1(O)C[C@@H]2CN(CCc3c([nH]c4ccccc34)[C@@](C(=O)OC)(c3cc4c(cc3OC)N(C)[C@H]3[C@@](O)(C(=O)OC)[C@H](OC(C)=O)[C@]5(CC)C=CCN6CC[C@]43[C@@H]65)C2)C1 [[^3H]-vinblastine]		Kd (P-glycoprotein (P-gp) [1]): 4 nM
Cn1c(=O)c2c(ncn2C)n(C)c1=O [caffeine]	no impact on the P-gp signal	
COc1cccc2c1C(=O)c1c(O)c3c(c(O)c1C2=O)C[C@@](O)(C(=O)CO)C[C@@H]3O[C@H]1C[C@H](N)[C@H](O)[C@H](C)O1 [doxorubicin]	did not appear to interfere with the P-gp signal	
CN(Cc1cnc2nc(N)nc(N)c2n1)c1ccc(C(=O)N[C@@H](CCC(=O)O)C(=O)O)cc1 [methotrexate]	did not appear to interfere with the P-gp signal	
Ivermectin		IC50 (P-glycoprotein (P-gp) [2]; read-out: IC50 values determined by SPA, inhibition of [3H]vinblastine binding to P-gp, KB-V1 membranes, WGA-Ysi beads, PRISM fit): 362 nM
